Test results taken from article PMC3248963 (Bioorganic & medicinal chemistry letters, 2011).
Where no end group is shown, it is not given here.

Tests used:
M397L GLP1 receptor = M397L GLP1 receptor (Homo sapiens, UniProt P43220, M397L); experiment: intracellular cAMP response assay, M397L mutant receptor; assay type: cell-based
[1] = target: GLP1 receptor (CHO-GLP1R cell membranes) (Homo sapiens, UniProt P43220); experiment: photoaffinity labeling of wild type receptor by radioiodinated Bpa-NRTFD
[2] = target: human GLP1 receptor (CHO-GLP1R cells) (Homo sapiens, UniProt P43220); experiment: intracellular cAMP response assay, wild type receptor; assay type: cell-based; details: EC50 values
[3] = system: dipeptidyl peptidase 4 (DPP4); details: cited from earlier work
GLP1 receptor = details: cited from earlier work

GLP1 receptor (CHO-GLP1R cell membranes), sequence (P43220 24-463): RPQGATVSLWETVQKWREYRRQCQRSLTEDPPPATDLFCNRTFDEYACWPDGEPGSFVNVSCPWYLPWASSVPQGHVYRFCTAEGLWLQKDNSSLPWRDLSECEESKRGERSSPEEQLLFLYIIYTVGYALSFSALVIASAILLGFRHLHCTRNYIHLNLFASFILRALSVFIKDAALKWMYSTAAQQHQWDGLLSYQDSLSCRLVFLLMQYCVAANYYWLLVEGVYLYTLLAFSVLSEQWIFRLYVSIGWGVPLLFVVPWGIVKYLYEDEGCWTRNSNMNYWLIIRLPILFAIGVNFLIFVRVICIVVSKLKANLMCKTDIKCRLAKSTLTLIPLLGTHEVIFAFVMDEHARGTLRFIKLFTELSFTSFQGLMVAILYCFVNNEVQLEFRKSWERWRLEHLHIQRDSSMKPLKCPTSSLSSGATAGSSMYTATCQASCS
human GLP1 receptor (CHO-GLP1R cells), sequence (P43220 24-463): as above
M397L GLP1 receptor, sequence (P43220 24-463 M397L): as the sequence (P43220 24-463) above, with M374L counted along it

Row | EC50 (M397L GLP1 receptor) | IC50 [1] | EC50 [2] | Compound | degradation by DPP4 [3] | blockade of agonist action by high affinity peptide antagonist (GLP1 receptor)
1 | 2.2 ± 0.8 µM | 3.1 ± 0.8 µM | 1.6 ± 0.5 µM | NRTFD [NRTFD] |  | 
2 |  |  |  | CC[C@H](C)[C@H](NC(=O)[C@H](Cc1ccccc1)NC(=O)[C@H](CCC(=O)O)NC(=O)[C@H](CCCCN)NC(=O)[C@H](C)NC(=O)[C@H](C)NC(=O)[C@H](CCC(N)=O)NC(=O)CNC(=O)[C@H](CCC(=O)O)NC(=O)[C@H](CC(C)C)NC(=O)[C@H](Cc1ccc(O)cc1)NC(=O)[C@H](CO)NC(=O)[C@H](CO)NC(=O)[C@@H](NC(=O)[C@H](CC(=O)O)NC(=O)[C@H](CO)NC(=O)[C@@H](NC(=O)[C@H](Cc1ccccc1)NC(=O)[C@@H](NC(=O)CNC(=O)[C@H](CCC(=O)O)NC(=O)[C@H](C)NC(=O)[C@@H](N)Cc1c[nH]cn1)[C@@H](C)O)[C@@H](C)O)C(C)C)C(=O)N[C@@H](C)C(=O)N[C@@H](Cc1c[nH]c2ccccc12)C(=O)N[C@@H](CC(C)C)C(=O)N[C@H](C(=O)N[C@@H](CCCCN)C(=O)NCC(=O)N[C@@H](CCCNC(=N)N)C(N)=O)C(C)C [GLP1] | rapidly degraded | competitively blocked
